Calls of active or inactive are those of the source. The calls are words filed in the database; no cut-off is given here.
Columns and labels:
[1] = tested on: Rattus norvegicus; assay: Hypolipidemic activity in HFD-induced Charles Foster rat assessed as increase in lipolytic activity of LPL in liver at 10 mg/kg administered as single dose via oral gavage for 30 days simultaneously with high fat diet; type: functional, organism-based
[2] = tested on: Rattus norvegicus; assay: Hypolipidemic activity in HFD-induced Charles Foster rat assessed as reduction in serum LDL-TG at 10 mg/kg administered as single dose via oral gavage for 30 days simultaneously with high fat diet; type: functional, organism-based
[3] = tested on: Rattus norvegicus; assay: Hypolipidemic activity in HFD-induced Charles Foster rat assessed as inhibition of hepatic HMG-CoA reductase activity by measuring […] at 10 mg/kg administered as single dose via oral gavage for 30 days simultaneously with high fat diet by colorimetric method; type: functional, organism-based
[4] = tested on: Rattus norvegicus; assay: Hypolipidemic activity in HFD-induced Charles Foster rat chronic hyperlipidemia model assessed as reduction in serum total cholesterol level at 10 mg/kg administered via oral gavage for 30 days simultaneously with high fat diet by enzymatic method relative to HFD treated vehicle; type: functional; conditions: 720 h
[5] = tested on: Rattus norvegicus; assay: Hypolipidemic activity in HFD-induced Charles Foster rat assessed as increase in serum HDL-TC at 10 mg/kg administered as single dose via oral gavage for 30 days simultaneously with high fat diet; type: functional, organism-based
[6] = tested on: Rattus norvegicus; assay: Hypolipidemic activity in HFD-induced Charles Foster rat assessed as reduction in serum VLDL-TC at 10 mg/kg administered as single dose via oral gavage for 30 days simultaneously with high fat diet; type: functional, organism-based
[7] = tested on: Rattus norvegicus; assay: Hypolipidemic activity in HFD-induced Charles Foster rat assessed as reduction in serum VLDL-TG at 10 mg/kg administered as single dose via oral gavage for 30 days simultaneously with high fat diet; type: functional, organism-based
[8] = tested on: Rattus norvegicus; assay: Antihyperlipidemic activity in triton WR-1339 induced Charles Foster rat hyperlipidemia model assessed as inhibition of phospholipid level in serum at 10 mg/kg, po administered simultaneously with triton WR-1339 after 18 hrs by enzymatic method relative to control; type: functional
[9] = target: T1, 3-hydroxy-3-methylglutaryl-coenzyme A reductase (Homo sapiens) (UniProt P04035); assay: Inhibition of human HMG-CoA reductase catalytic domain at 100 uM using HMG-CoA as substrate in presence of NADPH by colorimetric method relative to control
T1 sequence (whole entry): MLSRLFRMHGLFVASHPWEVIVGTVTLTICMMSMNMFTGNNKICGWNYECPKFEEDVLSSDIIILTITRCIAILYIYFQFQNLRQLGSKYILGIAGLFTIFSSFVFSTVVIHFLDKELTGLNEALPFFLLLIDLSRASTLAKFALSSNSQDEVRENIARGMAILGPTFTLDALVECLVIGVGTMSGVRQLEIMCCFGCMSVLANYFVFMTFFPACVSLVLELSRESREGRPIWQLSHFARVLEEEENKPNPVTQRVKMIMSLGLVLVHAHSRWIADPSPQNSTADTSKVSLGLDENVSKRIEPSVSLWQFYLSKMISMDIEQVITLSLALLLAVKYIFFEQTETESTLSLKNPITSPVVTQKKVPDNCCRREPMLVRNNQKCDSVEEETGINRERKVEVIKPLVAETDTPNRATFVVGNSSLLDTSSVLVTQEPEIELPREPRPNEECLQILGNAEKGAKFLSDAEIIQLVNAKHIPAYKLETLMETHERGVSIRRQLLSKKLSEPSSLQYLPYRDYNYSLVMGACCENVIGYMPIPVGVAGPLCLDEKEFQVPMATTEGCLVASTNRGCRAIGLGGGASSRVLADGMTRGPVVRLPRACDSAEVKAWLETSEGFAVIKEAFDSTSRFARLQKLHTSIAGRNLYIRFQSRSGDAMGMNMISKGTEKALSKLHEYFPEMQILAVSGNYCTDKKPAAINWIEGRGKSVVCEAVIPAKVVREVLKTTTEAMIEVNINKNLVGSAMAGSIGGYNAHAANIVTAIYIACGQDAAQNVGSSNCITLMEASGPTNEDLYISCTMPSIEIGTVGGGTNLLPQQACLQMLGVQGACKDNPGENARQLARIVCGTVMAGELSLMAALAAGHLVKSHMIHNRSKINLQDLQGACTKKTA

[10] = tested on: Rattus norvegicus; assay: Hypolipidemic activity in HFD-induced Charles Foster rat assessed as increase in serum LCAT activity at 10 mg/kg administered as single dose via oral gavage for 30 days simultaneously with high fat diet by photometric method; type: functional, organism-based
[11] = tested on: Rattus norvegicus; assay: Antihyperlipidemic activity in triton WR-1339 induced Charles Foster rat hyperlipidemia model assessed as inhibition of triglyceride level in serum at 10 mg/kg, po administered simultaneously with triton WR-1339 after 18 hrs by enzymatic method relative to control; type: functional
[12] = tested on: Rattus norvegicus; assay: Antihyperlipidemic activity in triton WR-1339 induced Charles Foster rat hyperlipidemia model assessed as inhibition of total cholesterol level in serum at 10 mg/kg, po administered simultaneously with triton WR-1339 after 18 hrs by enzymatic method relative to control; type: functional
[13] = target: T1, 3-hydroxy-3-methylglutaryl-coenzyme A reductase (Homo sapiens); assay: Inhibition of human HMG-CoA reductase catalytic domain at 5 uM using HMG-CoA as substrate in presence of NADPH by colorimetric method relative to control
[14] = tested on: Rattus norvegicus; assay: Hypolipidemic activity in HFD-induced Charles Foster rat assessed as increase in serum HDL-TG at 10 mg/kg administered as single dose via oral gavage for 30 days simultaneously with high fat diet; type: functional, organism-based
[15] = tested on: Rattus norvegicus; assay: Hypolipidemic activity in HFD-induced Charles Foster rat assessed as reduction in serum LDL-TC at 10 mg/kg administered as single dose via oral gavage for 30 days simultaneously with high fat diet; type: functional, organism-based
[16] = tested on: Rattus norvegicus; assay: Hypolipidemic activity in HFD-induced Charles Foster rat chronic hyperlipidemia model assessed as reduction in serum AST level at 10 mg/kg administered via oral gavage for 30 days simultaneously with high fat diet by colorimetric method relative to HFD treated vehicle; type: functional; conditions: 720 h
[17] = tested on: Rattus norvegicus; assay: Hypolipidemic activity in HFD-induced Charles Foster rat chronic hyperlipidemia model assessed as reduction in liver triglyceride level at 10 mg/kg administered via oral gavage for 30 days simultaneously with high fat diet by enzymatic method relative to HFD treated vehicle; type: functional; conditions: 720 h
[18] = target: T1, 3-hydroxy-3-methylglutaryl-coenzyme A reductase (Homo sapiens); assay: Inhibition of human HMG-CoA reductase catalytic domain at 1 uM using HMG-CoA as substrate in presence of NADPH by colorimetric method relative to control
[19] = target: T1, 3-hydroxy-3-methylglutaryl-coenzyme A reductase (Homo sapiens); assay: Inhibition of human HMG-CoA reductase catalytic domain at 50 uM using HMG-CoA as substrate in presence of NADPH by colorimetric method relative to control
[20] = tested on: Rattus norvegicus; assay: Hypolipidemic activity in HFD-induced Charles Foster rat assessed as increase in human I125-LDL binding to rat liver plasma membrane at 10 mg/kg administered as single dose via oral gavage for 30 days simultaneously with high fat diet by minigamma counting; type: functional, organism-based
[21] = tested on: Rattus norvegicus; assay: Hypolipidemic activity in HFD-induced Charles Foster rat chronic hyperlipidemia model assessed as reduction in serum ALT level at 10 mg/kg administered via oral gavage for 30 days simultaneously with high fat diet by colorimetric method relative to HFD treated vehicle; type: functional; conditions: 720 h
[22] = target: T1, 3-hydroxy-3-methylglutaryl-coenzyme A reductase (Homo sapiens); assay: Inhibition of human HMG-CoA reductase catalytic domain at 20 uM using HMG-CoA as substrate in presence of NADPH by colorimetric method relative to control
[23] = target: T1, 3-hydroxy-3-methylglutaryl-coenzyme A reductase (Homo sapiens); assay: Inhibition of human HMG-CoA reductase catalytic domain at 10 uM using HMG-CoA as substrate in presence of NADPH by colorimetric method relative to control
[24] = tested on: Rattus norvegicus; assay: Hypolipidemic activity in HFD-induced Charles Foster rat chronic hyperlipidemia model assessed as reduction in serum triglyceride level at 10 mg/kg administered via oral gavage for 30 days simultaneously with high fat diet by enzymatic method relative to HFD treated vehicle; type: functional; conditions: 720 h
[25] = tested on: Rattus norvegicus; assay: Hypolipidemic activity in HFD-induced Charles Foster rat chronic hyperlipidemia model assessed as reduction in liver total cholesterol level at 10 mg/kg administered via oral gavage for 30 days simultaneously with high fat diet by enzymatic method relative to HFD treated vehicle; type: functional; conditions: 720 h

inhibition [9]: 83%
inhibition [13]: 35%
inhibition [18]: 20%
inhibition [19]: 76%
inhibition [22]: 69%
inhibition [23]: 60 to 63%
Structure (SMILES): CC(C)c1c(C(=O)Nc2ccccc2)c(-c2ccccc2)c(-c2ccc(F)cc2)n1CC[C@@H](O)C[C@@H](O)CC(=O)O [ATORVASTATIN]
Activity [1]: Active
Activity [2]: Active
inhibition [3]: Active
inhibition in vivo at 10 mg/kg [4]: 25%
Activity [5]: Active
Activity [6]: Active
Activity [7]: Active
inhibition in vivo at 10 mg/kg [8]: 35%
Activity [10]: Active
inhibition in vivo at 10 mg/kg [11]: 35%
inhibition in vivo at 10 mg/kg [12]: 36%
Activity [14]: Active
Activity [15]: Active
inhibition in vivo at 10 mg/kg [16]: 29%
inhibition in vivo at 10 mg/kg [17]: 30%
Activity [20]: Active
inhibition in vivo at 10 mg/kg [21]: 25%
inhibition in vivo at 10 mg/kg [24]: 26%
inhibition in vivo at 10 mg/kg [25]: 28%

From ChEMBL document CHEMBL3997763 (Medchemcomm, 2016)
